Laboratory results: patent publication US8741944B2, “Anti-infective agents against intracellular pathogens” (priority 2007, dated 2014)
Like-named read-outs stand apart in the source and are kept apart here.

How the values were obtained:
CCRF-CEM (Leukemia) = assay: NCI DTP tumor cell line screen (SRB), CCRF-CEM
Procedure: (§1) For a typical screening experiment, cells are inoculated into 96 well microtiter plates in 100 μL at plating densities ranging from 5,000 to 40,000 cells/well depending on the doubling time of individual cell lines. After cell inoculation, the microtiter plates are incubated at 37° C., 5% CO2, 95% air and 100% relative humidity for 24 h prior to addition of experimental drugs.
(§2) After 24 h, two plates of each cell line are fixed in situ with TCA, to represent a measurement of the cell population for each cell line at the time of drug addition (Tz). Experimental drugs are solubilized in dimethyl sulfoxide at 400-fold the desired final maximum test concentration and stored frozen prior to use. At the time of drug addition, an aliquot of frozen concentrate is thawed and diluted to twice the desired final maximum test concentration with complete medium containing 50 μg/ml gentamicin. Additional four, 10-fold or ½ log serial dilutions are made to provide a total of five drug concentrations plus control. Aliquots of 100 μl of these different drug dilutions are added to the appropriate microtiter wells already containing 100 μl of medium, resulting in the required final drug concentrations.
(§3) Following drug addition, the plates are incubated for an additional 48 h at 37° C., 5% CO2, 95% air, and 100% relative humidity. For adherent cells, the assay is terminated by the addition of cold TCA. Cells are fixed in situ by the gentle addition of 50 μl of cold 50% (w/v) TCA (final concentration, 10% TCA) and incubated for 60 minutes at 4° C. The supernatant is discarded, and the plates are washed five times with tap water and air dried. Sulforhodamine B (SRB) solution (1001) at 0.4% (w/v) in 1% acetic acid is added to each well, and plates are incubated for 10 minutes at room temperature. After staining, unbound dye is removed by washing five times with 1% acetic acid and the plates are air dried. Bound stain is subsequently solubilized with 10 mM trizma base, and the absorbance is read on an automated plate reader at a wavelength of 515 nm. For suspension cells, the methodology is the same except that the assay is terminated by fixing settled cells at the bottom of the wells by gently adding 50 μl of 80% TCA (final concentration, 16% TCA). Using the seven absorbance measurements [time zero, (Tz), control growth, (C), and test growth in the presence of drug at the five concentration levels (Ti)], the percentage growth is calculated at each of the drug concentrations levels. Percentage growth inhibition is calculated as: [(Ti−Tz)/(C−Tz)]×100 for concentrations for which Ti>/=Tz [(Ti−Tz)/Tz]×100 for concentrations for which Ti<Tz
(§4) Three dose response parameters are calculated for each experimental agent. […] The drug concentration resulting in total growth inhibition (TGI) is calculated from Ti=Tz. […] Values are calculated for each of these three parameters if the level of activity is reached; however, if the effect is not reached or is exceeded, the value for that parameter is expressed as greater or less than the maximum or minimum concentration tested.

[1] = tested on: HOP-62 (Non-Small Cell Lung Cancer); assay: NCI DTP tumor cell line screen (SRB), HOP-62
Procedure: as §1, §2, §3, §4

OVCAR-5 (Ovarian Cancer) = assay: NCI DTP tumor cell line screen (SRB), OVCAR-5
Procedure: as §1, §2, §3, §4

CAKI-1 (Renal Cancer) = assay: NCI DTP tumor cell line screen (SRB), CAKI-1
Procedure: as §1, §2, §3, §4

PC-3 (Prostate Cancer) = assay: NCI DTP tumor cell line screen (SRB), PC-3
Procedure: as §1, §2, §3, §4

T-47D (Breast Cancer) = assay: NCI DTP tumor cell line screen (SRB), T-47D
Procedure: as §1, §2, §3, §4

UO-31 (Renal Cancer) = assay: NCI DTP tumor cell line screen (SRB), UO-31
Procedure: as §1, §2, §3, §4

[2] = tested on: NCI-H522 (Non-Small Cell Lung Cancer)
Procedure: as §1, §2, §3, §4

## NCC(=O)Nc1ccc(-n2nc(C(F)(F)F)cc2-c2ccc3c(ccc4ccccc43)c2)cc1 [Compound 70, 2-Amino-N-{4-[5-(2-phenanthrenyl)-3-(trifluoromethyl)-1H-pyrazol-1-yl]-phenyl}-acetamide]
CCRF-CEM (Leukemia)
  TGI: 2.49E−06
CCRF-CEM (Leukemia); Log10 Concentration −4.0
  Mean Optical Densities: 0.194
CCRF-CEM (Leukemia); Log10 Concentration −5.0
  Mean Optical Densities: 0.168
  Percent Growth: −43%
CCRF-CEM (Leukemia); Log10 Concentration −6.0
  Mean Optical Densities: 0.523
  Percent Growth: 28%
CCRF-CEM (Leukemia); Log10 Concentration −7.0
  Mean Optical Densities: 0.946
  Percent Growth: 81%
CCRF-CEM (Leukemia); Log10 Concentration −8.0
  Percent Growth: 74%
[1]
  TGI: 3.01E−06
[1]; Log10 Concentration −4.0
  Mean Optical Densities: 0.217
[1]; Log10 Concentration −5.0
  Mean Optical Densities: 0.155
  Percent Growth: −70%
[1]; Log10 Concentration −6.0
  Mean Optical Densities: 1.075
  Percent Growth: 64%
[1]; Log10 Concentration −7.0
  Mean Optical Densities: 1.330
  Percent Growth: 93%
[1]; Log10 Concentration −8.0
  Mean Optical Densities: 1.310
  Percent Growth: 90%
OVCAR-5 (Ovarian Cancer)
  TGI: 3.32E−06
OVCAR-5 (Ovarian Cancer); Log10 Concentration −4.0
  Mean Optical Densities: 0.149
OVCAR-5 (Ovarian Cancer); Log10 Concentration −5.0
  Mean Optical Densities: 0.087
  Percent Growth: −83%
OVCAR-5 (Ovarian Cancer); Log10 Concentration −6.0
  Mean Optical Densities: 1.412
  Percent Growth: 90%
OVCAR-5 (Ovarian Cancer); Log10 Concentration −7.0
  Mean Optical Densities: 1.540
  Percent Growth: 103%
OVCAR-5 (Ovarian Cancer); Log10 Concentration −8.0
  Mean Optical Densities: 1.480
  Percent Growth: 97%
CAKI-1 (Renal Cancer)
  TGI: 2.27E−06
CAKI-1 (Renal Cancer); Log10 Concentration −4.0
  Mean Optical Densities: 0.335
CAKI-1 (Renal Cancer); Log10 Concentration −5.0
  Mean Optical Densities: 0.147
  Percent Growth: −75%
CAKI-1 (Renal Cancer); Log10 Concentration −6.0
  Mean Optical Densities: 1.126
  Percent Growth: 42%
CAKI-1 (Renal Cancer); Log10 Concentration −7.0
  Mean Optical Densities: 1.802
  Percent Growth: 95%
CAKI-1 (Renal Cancer); Log10 Concentration −8.0
  Mean Optical Densities: 1.692
  Percent Growth: 87%
PC-3 (Prostate Cancer)
  TGI: 2.38E−06
PC-3 (Prostate Cancer); Log10 Concentration −4.0
  Mean Optical Densities: 0.108
PC-3 (Prostate Cancer); Log10 Concentration −5.0
  Mean Optical Densities: 0.055
  Percent Growth: −77%
PC-3 (Prostate Cancer); Log10 Concentration −6.0
  Mean Optical Densities: 0.593
  Percent Growth: 47%
PC-3 (Prostate Cancer); Log10 Concentration −7.0
  Mean Optical Densities: 0.763
  Percent Growth: 69%
PC-3 (Prostate Cancer); Log10 Concentration −8.0
  Mean Optical Densities: 0.910
  Percent Growth: 89%
T-47D (Breast Cancer)
  TGI: 4.21E−06
T-47D (Breast Cancer); Log10 Concentration −4.0
  Mean Optical Densities: 0.238
T-47D (Breast Cancer); Log10 Concentration −5.0
  Mean Optical Densities: 0.205
  Percent Growth: −52%
T-47D (Breast Cancer); Log10 Concentration −6.0
  Mean Optical Densities: 0.935
  Percent Growth: 86%
T-47D (Breast Cancer); Log10 Concentration −7.0
  Mean Optical Densities: 1.071
  Percent Growth: 109%
T-47D (Breast Cancer); Log10 Concentration −8.0
  Mean Optical Densities: 0.921
  Percent Growth: 84%
UO-31 (Renal Cancer)
  TGI: 3.29E−06
UO-31 (Renal Cancer); Log10 Concentration −4.0
  Mean Optical Densities: 0.285
UO-31 (Renal Cancer); Log10 Concentration −5.0
  Mean Optical Densities: 0.161
  Percent Growth: −64%
UO-31 (Renal Cancer); Log10 Concentration −6.0
  Mean Optical Densities: 1.356
  Percent Growth: 68%
UO-31 (Renal Cancer); Log10 Concentration −7.0
  Mean Optical Densities: 1.563
  Percent Growth: 84%
UO-31 (Renal Cancer); Log10 Concentration −8.0
  Mean Optical Densities: 1.572
  Percent Growth: 84%
[2]
  TGI: 3.94E−06
[2]; Log10 Concentration −4.0
  Mean Optical Densities: 0.486
[2]; Log10 Concentration −5.0
  Mean Optical Densities: 0.260
  Percent Growth: −66%
[2]; Log10 Concentration −6.0
  Mean Optical Densities: 1.528
  Percent Growth: 97%
[2]; Log10 Concentration −7.0
  Mean Optical Densities: 1.718
